What was measured:
Format in all cases: functional
HT-29 = test: Cytotoxicity against Homo sapiens (human) HT-29 cells after 48 hr by sulforhodamine B assay; conditions: HT-29, 48 h
M14 = test: Cytotoxicity against Homo sapiens (human) M14 cells after 48 hr by sulforhodamine B assay; conditions: M14, 48 h
T47D = test: Cytotoxicity against Homo sapiens (human) T47D cells after 48 hr by sulforhodamine B assay
SK-MEL-2 = test: Cytotoxicity against Homo sapiens (human) SK-MEL-2 cells after 48 hr by sulforhodamine B assay; conditions: SK-MEL-2, 48 h
SNB-19 = test: Cytotoxicity against Homo sapiens (human) SNB19 cells after 48 hr by sulforhodamine B assay; conditions: SNB-19, 48 h
IGROV-1 = test: Cytotoxicity against Homo sapiens (human) IGROV1 cells after 48 hr by sulforhodamine B assay; conditions: IGROV-1, 48 h
SF-295 = test: Cytotoxicity against Homo sapiens (human) SF295 cells after 48 hr by sulforhodamine B assay; conditions: SF-295, 48 h; for CC50: read-out: LC50 (the source's name)
SW-620 = test: Cytotoxicity against Homo sapiens (human) SW620 cells after 48 hr by sulforhodamine B assay; conditions: SW-620, 48 h
A498 = test: Cytotoxicity against Homo sapiens (human) A498 cells after 48 hr by sulforhodamine B assay; conditions: A498, 48 h
U-251 = test: Cytotoxicity against Homo sapiens (human) U251 cells after 48 hr by sulforhodamine B assay; conditions: U-251, 48 h
MCF7 = test: Cytotoxicity against Homo sapiens (human) MCF7 cells after 48 hr by sulforhodamine B assay; conditions: MCF7, 48 h
OVCAR-5 = test: Cytotoxicity against Homo sapiens (human) OVCAR5 cells after 48 hr by sulforhodamine B assay; conditions: OVCAR-5, 48 h; for CC50: read-out: LC50 (the source's name)
NCI-H226 = test: Cytotoxicity against Homo sapiens (human) NCI-H226 cells after 48 hr by sulforhodamine B assay; conditions: NCI-H226, 48 h; for CC50: read-out: LC50 (the source's name)
BT-549 = test: Cytotoxicity against Homo sapiens (human) BT549 cells after 48 hr by sulforhodamine B assay; conditions: BT-549, 48 h
SK-MEL-5 = test: Cytotoxicity against Homo sapiens (human) SK-MEL-5 cells after 48 hr by sulforhodamine B assay; conditions: SK-MEL-5, 48 h
EKVX = test: Cytotoxicity against Homo sapiens (human) EKVX cells after 48 hr by sulforhodamine B assay; conditions: for CC50: read-out: LC50 (the source's name)
PC-3 = test: Cytotoxicity against Homo sapiens (human) PC3 cells after 48 hr by sulforhodamine B assay; conditions: PC-3, 48 h
UO-31 = test: Cytotoxicity against Homo sapiens (human) UO31 cells after 48 hr by sulforhodamine B assay; conditions: UO-31, 48 h
OVCAR-8 = test: Cytotoxicity against Homo sapiens (human) OVCAR8 cells after 48 hr by sulforhodamine B assay; conditions: OVCAR-8, 48 h
CAKI-1 = test: Cytotoxicity against Homo sapiens (human) Caki1 cells after 48 hr by sulforhodamine B assay; conditions: CAKI-1, 48 h; for CC50: read-out: LC50 (the source's name)
MDA-MB-435 = test: Cytotoxicity against Homo sapiens (human) MDA-MB-435 cells after 48 hr by sulforhodamine B assay; conditions: MDA-MB-435, 48 h
SF-539 = test: Cytotoxicity against Homo sapiens (human) SF539 cells after 48 hr by sulforhodamine B assay; conditions: SF-539, 48 h
HOP-92 = test: Cytotoxicity against Homo sapiens (human) HOP92 cells after 48 hr by sulforhodamine B assay; conditions: HOP-92, 48 h; for CC50: read-out: LC50 (the source's name)
OVCAR-3 = test: Cytotoxicity against Homo sapiens (human) OVCAR3 cells after 48 hr by sulforhodamine B assay; conditions: OVCAR-3, 48 h
SF-268 = test: Cytotoxicity against Homo sapiens (human) SF268 cells assessed as cell growth at 10^-4 M after 48 hr by […] assay; conditions: SF-268, 48 h, read-out: Activity
NCI-H460 = test: Cytotoxicity against Homo sapiens (human) NCI-H460 cells after 48 hr by sulforhodamine B assay; conditions: NCI-H460, 48 h; for CC50: read-out: LC50 (the source's name)
786-0 = test: Cytotoxicity against Homo sapiens (human) 786-0 cells after 48 hr by sulforhodamine B assay; conditions: 786-0, 48 h
NCI-H322M = test: Cytotoxicity against Homo sapiens (human) NCI-H322M cells after 48 hr by sulforhodamine B assay; conditions: for CC50: read-out: LC50 (the source's name)
SN12C = test: Cytotoxicity against Homo sapiens (human) SN12C cells after 48 hr by sulforhodamine B assay
ACHN = test: Cytotoxicity against Homo sapiens (human) ACHN cells after 48 hr by sulforhodamine B assay
DU-145 = test: Cytotoxicity against Homo sapiens (human) DU145 cells after 48 hr by sulforhodamine B assay; conditions: DU-145, 48 h
SK-MEL-28 = test: Cytotoxicity against Homo sapiens (human) SK-MEL-28 cells after 48 hr by sulforhodamine B assay; conditions: SK-MEL-28, 48 h
[1] = read-out: LC50 (the source's name)

## ClCc1ccc(Cn2cnc3ncnc(Cl)c32)cc1
HT-29
  GI50: 1.23 µM
  TGI: 3.63 µM
HT-29; [1]
  CC50: 56.2 µM
M14
  GI50: 2.75 µM
  LC50: 37.1 µM
  TGI: 13.2 µM
T47D
  GI50: 1.28 µM
  LC50: 6.3 µM
  TGI: 2.88 µM
SK-MEL-2
  GI50: 6.3 µM
  LC50 (concentration killing 50% of cells): > 100 µM
  TGI: > 100 µM
SNB-19
  GI50: 1.69 µM
  LC50: 5.75 µM
  TGI: 3.16 µM
IGROV-1
  GI50: 7.58 µM
  LC50: > 100 µM
  TGI: 30.9 µM
SF-295
  GI50: 2.04 µM
  TGI: 5.01 µM
  CC50: 17 µM
SW-620
  GI50: 2.57 µM
  TGI: 7.24 µM
SW-620; [1]
  CC50: 32.4 µM
A498
  GI50: 1.81 µM
  LC50 (lethal concentration, 50% cell kill): 6.3 µM
  TGI: 3.38 µM
U-251
  GI50: 1.09 µM
  LC50 (concentration killing 50% of cells): 4.78 µM
  TGI: 2.29 µM
MCF7
  GI50: 1.34 µM
  LC50 (concentration killing 50% of cells): 6.45 µM
  TGI: 2.95 µM
OVCAR-5
  GI50: 6.3 µM
  TGI: 19.5 µM
  CC50: 45.7 µM
NCI-H226
  GI50: 3.01 µM
  TGI: 12 µM
  CC50: 37.1 µM
BT-549
  GI50: 3.71 µM
  LC50 (50% lethal concentration): 56.2 µM
  TGI: 17 µM
SK-MEL-5
  GI50: 2.81 µM
  LC50: 34.7 µM
  TGI: 12 µM
EKVX
  GI50: 2.23 µM
  TGI: 4.46 µM
  CC50: 8.7 µM
PC-3
  GI50: 1.58 µM
  LC50 (concentration causing 50% cell kill): 5.37 µM
  TGI: 2.95 µM
UO-31
  GI50: 4.78 µM
  LC50 (concentration causing 50% net cell kill): > 100 µM
  TGI: 66.1 µM
OVCAR-8
  GI50: 3.16 µM
  LC50 (concentration killing 50% of cells): 56.2 µM
  TGI: 11 µM
CAKI-1
  GI50: 1.99 µM
  TGI: 4.46 µM
  CC50: 9.77 µM
MDA-MB-435
  GI50: 5.88 µM
  LC50: 46.8 µM
  TGI: 19.1 µM
SF-539
  GI50: 2.08 µM
  LC50 (concentration killing 50% of cells): 6.76 µM
  TGI: 3.71 µM
HOP-92
  GI50: 1.17 µM
  TGI: 2.51 µM
  CC50: 5.49 µM
OVCAR-3
  GI50: 1.81 µM
  LC50: 6.3 µM
  TGI: 3.38 µM
SF-268
  growth at 100 µM: 1%
NCI-H460
  GI50: 1.77 µM
  TGI: 4.26 µM
  CC50: 17.4 µM
786-0
  GI50: 1.69 µM
  LC50: 5.49 µM
  TGI: 3.01 µM
NCI-H322M
  GI50: 1.62 µM
  TGI: 3.01 µM
  CC50: 5.62 µM
SN12C
  GI50: 3.63 µM
  LC50 (50% lethal concentration): 40.7 µM
  TGI: 14.8 µM

## ClCc1ccc(Cn2cnc3c(Cl)ncnc32)cc1
M14
  GI50: 1.28 µM
  LC50: 9.12 µM
  TGI: 3.46 µM
ACHN
  GI50: 0.31 µM
  TGI: 1.28 µM
ACHN; [1]
  CC50: 3.8 µM
SK-MEL-2
  GI50: 4.36 µM
  LC50 (concentration killing 50% of cells): > 100 µM
  TGI: > 100 µM
SNB-19
  GI50: 3.63 µM
  LC50: 89.1 µM
  TGI: 21.9 µM
IGROV-1
  GI50: 3.16 µM
  LC50: > 100 µM
  TGI: 25.1 µM
SF-295
  GI50: 0.27 µM
  TGI: 3.46 µM
  CC50: 24 µM
A498
  GI50: 12.9 µM
  LC50 (lethal concentration, 50% cell kill): 57.5 µM
  TGI: 26.9 µM
U-251
  GI50: 1.25 µM
  LC50 (concentration killing 50% of cells): 7.41 µM
  TGI: 3.01 µM
MCF7
  GI50: 0.41 µM
  LC50 (concentration killing 50% of cells): > 100 µM
  TGI: 77.6 µM
OVCAR-5
  GI50: 2.95 µM
  TGI: 9.23 µM
  CC50: 34.7 µM
NCI-H226
  GI50: 1.58 µM
  TGI: 7.41 µM
  CC50: 49 µM
BT-549
  GI50: 5.62 µM
  LC50 (50% lethal concentration): 57.5 µM
  TGI: 21.4 µM
SK-MEL-5
  GI50: 3.23 µM
  LC50: 74.1 µM
  TGI: 20.9 µM
DU-145
  GI50: 1.31 µM
  LC50: 36.3 µM
  TGI: 11.8 µM
EKVX
  GI50: 2.45 µM
  TGI: 6.92 µM
  CC50: 38.9 µM
PC-3
  GI50: 4.78 µM
  LC50 (concentration causing 50% cell kill): > 100 µM
  TGI: 72.4 µM
UO-31
  GI50: 2.08 µM
  LC50 (concentration causing 50% net cell kill): > 100 µM
  TGI: 4.57 µM
OVCAR-8
  GI50: 3.02 µM
  LC50 (concentration killing 50% of cells): 64.6 µM
  TGI: 15.1 µM
CAKI-1
  GI50: 0.26 µM
  TGI: 0.64 µM
  CC50: 2.39 µM
MDA-MB-435
  GI50: 1.62 µM
  LC50: 15.8 µM
  TGI: 4.36 µM
SF-539
  LC50 (concentration killing 50% of cells): 70.8 µM
HOP-92
  GI50: 6.02 µM
  TGI: 66.1 µM
  CC50: > 100 µM
OVCAR-3
  GI50: 1.38 µM
  LC50: 8.91 µM
  TGI: 3.54 µM
SF-268
  growth at 100 µM: 26%
NCI-H460
  GI50: 0.05 µM
  TGI: 1.82 µM
  CC50: 26.9 µM
SK-MEL-28
  GI50: 7.94 µM
  LC50 (concentration killing 50% of cells): > 100 µM
  TGI: 30.9 µM
786-0
  GI50: 1.02 µM
  LC50: 21.4 µM
  TGI: 3.98 µM
NCI-H322M
  GI50: 1.82 µM
  TGI: 4.16 µM
  CC50: 9.33 µM
SN12C
  GI50: 1.02 µM
  LC50 (50% lethal concentration): 5.37 µM
  TGI: 2.34 µM
